From PubChem BioAssay AID256 (DTP/NCI, 2004)
“And” between values parts separate entries of the source, which are not always exact repeats. Equal entries are not always repeated. Toxic doses and inconclusive results are not listed. How the source made its calls: active means survival T/C of 150% or more; inactive means T/C below 125% in these data.

Tested on: CD2F1 mice, L1210 leukemia ip, survival T/C
Assay: NCI In Vivo Anticancer Drug Screen. Data for tumor model L1210 Leukemia (intraperitoneal) in CD2F1 (CDF1) mice
Conditions: higher = longer survival
Outline: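 Compound-dosed mice with transplantable tumor versus matched vehicle controls; endpoint ratio T/C reported.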

[1] = endpoint: mean survival time, dose: 100.0 mg/kg/injection, schedule: Q04DX003 (ip), vehicle: saline with Tween-80
[2] = endpoint: mean survival time, dose: 200.0 mg/kg/injection, schedule: Q04DX003 (ip), vehicle: saline with Tween-80
[3] = endpoint: mean survival time, dose: 400.0 mg/kg/injection, schedule: Q04DX003 (ip), vehicle: saline with Tween-80
[4] = endpoint: mean survival time, dose: 100.0 mg/kg/injection, schedule: Q01DX001 (ip), vehicle: saline with Tween-80
[5] = endpoint: mean survival time, dose: 200.0 mg/kg/injection, schedule: Q01DX001 (ip), vehicle: saline with Tween-80
[6] = endpoint: mean survival time, dose: 400.0 mg/kg/injection, schedule: Q01DX001 (ip), vehicle: saline with Tween-80
[7] = endpoint: mean survival time, dose: 100.0 mg/kg/injection, schedule: Q01DX009 (ip), vehicle: saline with Tween-80

Measured: T/C

O=C(O)/C=C/C(=O)Nc1ccc(N=Nc2ccccc2)cc1
inactive: [1] 93 % of control | [2] 98 % of control

O=Cc1cc2c3c(c1)CCCN3CCC2
inactive: [1] 97 % of control | [2] 102 % of control | [3] 94 % of control

CC12CCCC1=C1CCC3CC(OC(=O)c4ccccc4)CCC3(C)C1CC2 (configuration not stated)
inactive: [1] 100 % of control | [2] 96 % of control | [3] 100 % of control

COC1C(O)CC(OC2CC(OC3CC(O[C@@H]4C(=O)c5c(cc6cc(OC7CC(OC8CC(O)C(O)C(C)O8)C(O)C(C)O7)c(C)c(O)c6c5O)C[C@H]4[C@H](OC)C(=O)[C@@H](O)[C@@H](C)O)OC(C)C3O)OC(C)C2O)OC1C (some centres not stated)
inactive: endpoint: mean survival time, dose: 0.09 mg/kg/injection, schedule: Q01DX009 (ip), vehicle: saline 97 % of control | endpoint: mean survival time, dose: 0.18 mg/kg/injection, schedule: Q01DX009 (ip), vehicle: saline 103 % of control | endpoint: mean survival time, dose: 0.37 mg/kg/injection, schedule: Q01DX009 (ip), vehicle: saline 111 % of control | endpoint: mean survival time, dose: 0.75 mg/kg/injection, schedule: Q01DX009 (ip), vehicle: saline 104 % of control | endpoint: mean survival time, dose: 1.5 mg/kg/injection, schedule: Q01DX009 (ip), vehicle: saline 95 % of control | endpoint: mean survival time, dose: 375.0 micrograms/kg/injection, schedule: Q01DX009 (ip), vehicle: saline 110 % of control | endpoint: mean survival time, dose: 750.0 micrograms/kg/injection, schedule: Q01DX009 (ip), vehicle: saline 115 % of control | endpoint: mean survival time, dose: 1500.0 micrograms/kg/injection, schedule: Q01DX009 (ip), vehicle: saline 109 % of control | endpoint: mean survival time, dose: 3000.0 micrograms/kg/injection, schedule: Q01DX009 (ip), vehicle: saline 104 % of control

COc1oc(C2C/C(=C/C(C)=C/C(C)=C/C(C)=C/c3ccc([N+](=O)[O-])cc3)CO2)c(C)c(=O)c1C (configuration not stated)
inactive: endpoint: median survival time, dose: 0.25 mg/kg/injection, schedule: Q01DX009 (ip), vehicle: saline 104 % of control and 108 % of control | endpoint: median survival time, dose: 0.5 mg/kg/injection, schedule: Q01DX009 (ip), vehicle: saline 118 % of control and 124 % of control and 112 % of control | endpoint: median survival time, dose: 1.0 mg/kg/injection, schedule: Q01DX009 (ip), vehicle: saline 118 % of control and 124 % of control | endpoint: median survival time, dose: 2.0 mg/kg/injection, schedule: Q01DX009 (ip), vehicle: saline 120 % of control | endpoint: median survival time, dose: 4.0 mg/kg/injection, schedule: Q01DX009 (ip), vehicle: saline 103 % of control

CC(=O)NC(C)(C)Cc1ccccc1
inactive: [4] 101 % of control | [5] 117 % of control | [6] 106 % of control

Cc1ccc(S(=O)(=O)Nc2cccc3c(NS(=O)(=O)c4ccc(C)cc4)cccc23)cc1
inactive: [1] 96 % of control | [2] 100 % of control | [3] 96 % of control

N=C(N)c1ccc(/C=C/c2ccc(C(=N)N)cc2O)cc1
inactive: endpoint: mean survival time, dose: 3.12 mg/kg/injection, schedule: Q01DX009 (ip), vehicle: water 91 % of control | endpoint: mean survival time, dose: 6.25 mg/kg/injection, schedule: Q01DX009 (ip), vehicle: water 97 % of control | endpoint: mean survival time, dose: 12.5 mg/kg/injection, schedule: Q01DX009 (ip), vehicle: water 103 % of control | endpoint: mean survival time, dose: 25.0 mg/kg/injection, schedule: Q01DX009 (ip), vehicle: water 105 % of control | endpoint: mean survival time, dose: 50.0 mg/kg/injection, schedule: Q01DX009 (ip), vehicle: water 111 % of control

CC(C)c1oc(=O)cc2c1C(O)C1OC(=O)C3(C)C(O)C4OC4C2(C)C13 (configuration not stated) (tested in a mixture with another compound)
inactive: endpoint: mean survival time, dose: 100.0 mg/kg/injection, schedule: Q04DX002 (ip), vehicle: saline with Tween-80 105 % of control

NC1(C(=O)O)CCCC1
inactive: endpoint: mean survival time, dose: 50.0 mg/kg/injection, schedule: Q01DX009 (ip), vehicle: saline 98 % of control and 110 % of control | endpoint: mean survival time, dose: 50.0 mg/kg/injection, schedule: Q03DX003 (ip), vehicle: saline 110 % of control | endpoint: mean survival time, dose: 50.0 mg/kg/injection, schedule: Q04DX003 (ip), vehicle: saline 96 % of control | endpoint: mean survival time, dose: 100.0 mg/kg/injection, schedule: Q03DX003 (ip), vehicle: saline 98 % of control | endpoint: mean survival time, dose: 200.0 mg/kg/injection, schedule: Q01DX009 (ip), vehicle: saline 92 % of control and 110 % of control

C(=N\Nc1ccccc1)/c1ccccc1
inactive: [4] 107 % of control | endpoint: mean survival time, dose: 100.0 mg/kg/injection, schedule: Q04DX003 (ip), vehicle: Klucel (hydroxypropylcellulose) (HPC) 106 % of control | [5] 94 % of control | endpoint: mean survival time, dose: 200.0 mg/kg/injection, schedule: Q04DX003 (ip), vehicle: Klucel (hydroxypropylcellulose) (HPC) 98 % of control | [6] 100 % of control | endpoint: mean survival time, dose: 400.0 mg/kg/injection, schedule: Q04DX003 (ip), vehicle: Klucel (hydroxypropylcellulose) (HPC) 96 % of control

Cc1cccc(-c2nn[nH]n2)n1
inactive: endpoint: mean survival time, dose: 12.5 mg/kg/injection, schedule: Q01DX001 (ip), vehicle: saline with Tween-80 98 % of control | endpoint: mean survival time, dose: 25.0 mg/kg/injection, schedule: Q01DX001 (ip), vehicle: saline with Tween-80 90 % of control | endpoint: mean survival time, dose: 100.0 mg/kg/injection, schedule: Q01DX001 (ip), vehicle: saline 103 % of control | endpoint: mean survival time, dose: 200.0 mg/kg/injection, schedule: Q01DX001 (ip), vehicle: saline 113 % of control | endpoint: mean survival time, dose: 400.0 mg/kg/injection, schedule: Q01DX001 (ip), vehicle: saline 101 % of control

CC1(C)CC(C)(Br)C(Br)C(=O)C1C(O)(C(F)(F)F)C(F)(F)F (configuration not stated)
inactive: [1] 100 % of control | [2] 97 % of control | [3] 100 % of control

CCOc1ccc(Cl)cc1
inactive: endpoint: mean survival time, dose: 50.0 mg/kg/injection, schedule: Q01DX009 (ip), vehicle: saline with Tween-80 96 % of control | [7] 98 % of control

CC(=O)Nc1ccc(/C=C/[N+](=O)[O-])cc1
inactive: endpoint: mean survival time, dose: 75.0 mg/kg/injection, schedule: Q01DX001 (ip), vehicle: other 105 % of control | endpoint: mean survival time, dose: 150.0 mg/kg/injection, schedule: Q01DX001 (ip), vehicle: other 108 % of control | endpoint: mean survival time, dose: 300.0 mg/kg/injection, schedule: Q01DX001 (ip), vehicle: other 114 % of control

CSCCCNC(=O)c1csc(CCNC(=O)c2ccccc2)n1
inactive: [7] 108 % of control | endpoint: mean survival time, dose: 200.0 mg/kg/injection, schedule: Q01DX009 (ip), vehicle: saline with Tween-80 101 % of control | endpoint: mean survival time, dose: 400.0 mg/kg/injection, schedule: Q01DX009 (ip), vehicle: saline with Tween-80 101 % of control

O=[N+]([O-])c1ccc(N/N=C(\CBr)c2ccccc2)c([N+](=O)[O-])c1
inactive: [4] 101 % of control | [5] 92 % of control | [6] 93 % of control

CC(=O)N(C)NC(=O)c1ccccn1
inactive: endpoint: mean survival time, dose: 50.0 mg/kg/injection, schedule: Q01DX001 (ip), vehicle: water 106 % of control | endpoint: mean survival time, dose: 100.0 mg/kg/injection, schedule: Q01DX001 (ip), vehicle: water 103 % of control | endpoint: mean survival time, dose: 200.0 mg/kg/injection, schedule: Q01DX001 (ip), vehicle: water 102 % of control | endpoint: mean survival time, dose: 400.0 mg/kg/injection, schedule: Q01DX001 (ip), vehicle: water 103 % of control

Oc1ccc(O)c2c1C1(Cl)C(Cl)=C(Cl)C2(Cl)C1(Cl)Cl
inactive: endpoint: mean survival time, dose: 100.0 mg/kg/injection, schedule: Q01DX009 (ip), vehicle: other 95 % of control | endpoint: mean survival time, dose: 200.0 mg/kg/injection, schedule: Q01DX009 (ip), vehicle: other 98 % of control | endpoint: mean survival time, dose: 400.0 mg/kg/injection, schedule: Q01DX009 (ip), vehicle: other 106 % of control

CC(=O)Oc1ccc2c(c1)C(=O)CCC=C2
inactive: endpoint: mean survival time, dose: 12.5 mg/kg/injection, schedule: Q01DX009 (ip), vehicle: other 103 % of control | endpoint: mean survival time, dose: 25.0 mg/kg/injection, schedule: Q01DX009 (ip), vehicle: other 106 % of control | endpoint: mean survival time, dose: 50.0 mg/kg/injection, schedule: Q01DX009 (ip), vehicle: other 108 % of control

O=C(O/N=C(\c1ccccc1)c1cccs1)N(c1ccccc1)c1ccccc1
inactive: endpoint: mean survival time, dose: 100.0 mg/kg/injection, schedule: Q01DX001 (ip), vehicle: other 92 % of control | endpoint: mean survival time, dose: 200.0 mg/kg/injection, schedule: Q01DX001 (ip), vehicle: other 98 % of control | endpoint: mean survival time, dose: 400.0 mg/kg/injection, schedule: Q01DX001 (ip), vehicle: other 92 % of control
